# Measured values: patent US9284297B2, “Halofuginone analogs for inhibition of tRNA synthetases and uses thereof” (President and Fellows of Harvard College, priority 2008, dated 2016)
# How the values were obtained:
# [1] = target: T1, Prolyl-tRNA synthetase (EPRS) purified from rabbit liver (Oryctolagus cuniculus, UniProt G1T2I4); experiment: Purified EPRS, 14C-labeled proline incorporation into tRNA; format: biochemical; conditions: 10 μM, 4 μM, 1 μM HF
# T1 construct: Prolyl-tRNA synthetase (EPRS) purified from rabbit liver; from tissue; host or cells: rabbit liver
# T1 sequence (G1T2I4 1-1447): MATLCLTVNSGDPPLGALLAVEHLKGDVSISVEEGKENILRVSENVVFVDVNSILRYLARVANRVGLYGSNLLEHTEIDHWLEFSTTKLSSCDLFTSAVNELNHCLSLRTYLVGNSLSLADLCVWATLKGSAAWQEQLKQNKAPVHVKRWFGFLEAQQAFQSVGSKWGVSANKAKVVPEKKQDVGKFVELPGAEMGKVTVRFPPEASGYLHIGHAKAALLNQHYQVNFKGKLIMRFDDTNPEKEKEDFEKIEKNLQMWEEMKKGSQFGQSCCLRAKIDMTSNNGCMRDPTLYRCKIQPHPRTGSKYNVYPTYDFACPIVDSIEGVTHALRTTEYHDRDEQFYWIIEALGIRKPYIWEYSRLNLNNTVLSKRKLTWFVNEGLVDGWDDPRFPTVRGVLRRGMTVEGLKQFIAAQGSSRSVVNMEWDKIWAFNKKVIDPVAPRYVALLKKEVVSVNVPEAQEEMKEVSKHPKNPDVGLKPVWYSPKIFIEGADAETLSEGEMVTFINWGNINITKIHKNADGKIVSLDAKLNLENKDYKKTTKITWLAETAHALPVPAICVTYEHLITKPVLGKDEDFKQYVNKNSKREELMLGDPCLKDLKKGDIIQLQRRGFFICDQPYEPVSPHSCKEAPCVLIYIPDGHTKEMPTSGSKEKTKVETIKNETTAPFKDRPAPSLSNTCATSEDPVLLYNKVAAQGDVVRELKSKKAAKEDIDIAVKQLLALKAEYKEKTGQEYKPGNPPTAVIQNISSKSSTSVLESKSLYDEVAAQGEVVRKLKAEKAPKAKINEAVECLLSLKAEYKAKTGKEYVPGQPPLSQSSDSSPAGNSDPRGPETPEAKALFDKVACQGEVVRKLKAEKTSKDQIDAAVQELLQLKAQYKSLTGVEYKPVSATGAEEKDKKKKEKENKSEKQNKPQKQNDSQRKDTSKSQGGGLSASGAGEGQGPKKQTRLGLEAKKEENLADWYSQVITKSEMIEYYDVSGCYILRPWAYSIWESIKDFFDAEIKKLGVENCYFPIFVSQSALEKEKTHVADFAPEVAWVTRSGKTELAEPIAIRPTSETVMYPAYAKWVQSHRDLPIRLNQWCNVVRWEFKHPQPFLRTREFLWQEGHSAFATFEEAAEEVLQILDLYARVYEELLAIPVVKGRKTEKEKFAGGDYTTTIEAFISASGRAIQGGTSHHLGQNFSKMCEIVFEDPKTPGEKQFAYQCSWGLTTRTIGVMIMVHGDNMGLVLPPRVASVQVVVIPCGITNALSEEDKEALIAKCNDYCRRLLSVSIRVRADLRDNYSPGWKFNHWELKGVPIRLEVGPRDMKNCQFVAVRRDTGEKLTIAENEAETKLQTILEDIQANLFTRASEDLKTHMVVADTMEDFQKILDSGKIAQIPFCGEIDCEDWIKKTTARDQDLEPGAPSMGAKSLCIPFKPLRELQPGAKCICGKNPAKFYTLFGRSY
# Description: Purified enzyme was incubated with 100 μg/ml bovine tRNA, 50 μM ^14C-labeled proline, 5 mM ATP, and 10 mM MgCl2 for 20 minutes. Charged tRNA was isolated by precipitation on Whatman filter paper and washing with cold 5% TCA. TCA precipitable counts were assayed by scintillation counting.
# [2] = tested on: SV-MES mesangial cells (GCN2 Thr898, eIF2alpha Ser51 phosphorylation); experiment: AAR activation in cultured fibroblastic cells, western blot; format: cell-based; conditions: 20 nM; 2 hours
# From the text: Duplicate cell samples are shown. […] Activated GCN2 phosphorylates eif2alpha at Ser 51, therefore this is an expected downstream outcome of AAR activation.
# [3] = target: T2, methionyl tRNA synthetase (Oryctolagus cuniculus, UniProt G1SSX5); experiment: Incorporation of 35S-labeled methionine into tRNA in rabbit reticulocyte lysate; format: biochemical; conditions: crude in vitro translation system
# T2 construct: from tissue; host or cells: rabbit reticulocyte lysate
# T2 sequence (G1SSX5 1-900): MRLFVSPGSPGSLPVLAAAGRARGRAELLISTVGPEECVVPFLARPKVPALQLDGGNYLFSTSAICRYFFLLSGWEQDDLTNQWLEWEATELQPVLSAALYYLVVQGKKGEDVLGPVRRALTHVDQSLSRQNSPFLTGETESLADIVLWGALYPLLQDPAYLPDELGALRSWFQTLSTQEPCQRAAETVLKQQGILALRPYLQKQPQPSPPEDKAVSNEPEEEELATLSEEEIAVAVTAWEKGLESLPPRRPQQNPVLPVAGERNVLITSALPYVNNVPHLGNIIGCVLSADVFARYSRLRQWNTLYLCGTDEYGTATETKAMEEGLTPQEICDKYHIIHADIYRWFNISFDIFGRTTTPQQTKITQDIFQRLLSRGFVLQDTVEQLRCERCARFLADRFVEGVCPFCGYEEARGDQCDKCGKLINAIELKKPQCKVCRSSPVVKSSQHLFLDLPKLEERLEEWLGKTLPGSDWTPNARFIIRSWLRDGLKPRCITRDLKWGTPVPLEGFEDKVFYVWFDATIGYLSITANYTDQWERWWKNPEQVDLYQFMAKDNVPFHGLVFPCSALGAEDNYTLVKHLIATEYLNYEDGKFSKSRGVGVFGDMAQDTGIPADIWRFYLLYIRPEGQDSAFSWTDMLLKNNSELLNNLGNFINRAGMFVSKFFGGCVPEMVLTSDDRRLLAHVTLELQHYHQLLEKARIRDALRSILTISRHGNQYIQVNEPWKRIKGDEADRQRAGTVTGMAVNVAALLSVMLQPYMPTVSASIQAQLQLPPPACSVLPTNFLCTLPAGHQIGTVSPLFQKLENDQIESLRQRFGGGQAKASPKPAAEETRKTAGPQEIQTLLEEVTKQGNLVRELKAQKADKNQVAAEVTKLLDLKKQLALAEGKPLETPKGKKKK
# Description: Total RNA was extracted with acidic phenol-chloroform and tRNA was isolated using miRVANA microRNA isolation kit. Radioisotope incorporation into tRNA was measured in a scintillation counter.
smiles,measurement,setting,value
"O=C(CC1NCCCC1O)Cn1cnc2cc(Br)c(Cl)cc2c1=O (stereo not drawn) [Compound 1, 7-bromo-6-chloro-3-[3-(3-hydroxy-2-piperidinyl)-2-oxopropyl]-4(3H)-quinazolinone]",inhibition of purified EPRS (TCA precipitable counts),[1],directly inhibits purified mammalian EPRS
same,AAR activation (GCN2 Thr898 and eIF2alpha Ser51 phosphorylation),[2],activates the AAR
same,inhibition of 35S methionine incorporation into tRNA,[3],not a different tRNA synthetase (methionyl tRNA synthetase)
